Source: ChEMBL document CHEMBL5506048, “Modular Biomimetic Strategy Enables Discovery and SAR Exploration of Oxime Macrocycles as Influenza A Virus (H1N1) Inhibitors” (J Med Chem, 2024)
Active and inactive are the calls of the source. The rule behind the calls is not given here.

Experiments:
[1] = Selectivity index, ratio of CC50 for human Calu-3 cells to EC50 for antiviral activity against Influenza virus HINI A/Puerto Rico/8/34 (A/PR/8/34); type: toxicity; details: read-out: Selectivity Index
[2] = test system: Ebolavirus; assay: Antiviral activity against HIV pseudotyped EBOV GP infected in human 293T cells assessed as inhibition of viral entry into cells by measuring intensity of chemiluminescence measured after 3 days by Bright-Glo luciferase assay; type: functional, organism-based; details: HEK293T, time 3.0 day
[3] = test system: Influenza A virus; assay: Synergistic antiviral activity against Influenza virus H1N1 A/Puerto Rico/8/34 (A/PR/8/34) infected in human Calu-3 cells assessed as combination index of 50% inhibition at 0.06 nM in presence of 450 nM oseltamivir acid; type: functional
[4] = Half life in ICR (CD-1) mouse at 2 mg/kg, iv measured upto 24 hrs by LC-MS/MS analysis; type: ADME, organism-based; details: in vivo
[5] = Stability of the compound in RPMI 1640 cell culture medium containing 10% fetal bovine serum assessed as compound remaining measured after 24 hrs by LC-MS/MS analysis; type: physicochemical, cell-free; details: cattle, read-out: Stability
[6] = test system: Influenza B virus; assay: Antiviral activity against Influenza virus Flu B (B/Taiwan/2/62) infected in human Calu-3 cells assessed as viral RNA measured after 3 days by one-time real time PCR assay; type: functional, organism-based; details: B/Taiwan/2/62, Calu-3, 72 h
[7] = AUC (0 to infinity) in ICR (CD-1) mouse at 2 mg/kg, iv measured upto 24 hrs by LC-MS/MS analysis; type: ADME, organism-based; details: in vivo
[8] = Volume of distribution in ICR (CD-1) mouse at 2 mg/kg, iv measured upto 24 hrs by LC-MS/MS analysis; type: ADME, organism-based; details: in vivo
[9] = test system: Influenza A virus; assay: Antiviral activity against Influenza virus H1N1 A/Puerto Rico/8/34 (A/PR/8/34) 2.5TCID50 infected in human Calu-3 cells assessed as reduction in virus-induced cytopathic effect by measuring sloughing at 0.0156 to 37 uM measured after 3 days by immunofluorescence assay; type: functional, organism-based; details: dose 0.0156-37 µM, time 3.0 day
[10] = test system: Influenza A virus; assay: Antiviral activity against Influenza virus H1N1 A/Puerto Rico/8/34 (A/PR/8/34) 2.5TCID50 infected in human Calu-3 cells assessed as reduction in virus-induced cytopathic effect by measuring cell rounding at 0.0156 to 37 uM measured after 3 days by immunofluorescence assay; type: functional, organism-based; details: dose 0.0156-37 µM, time 3.0 day
[11] = Half life in ICR (CD-1) mouse at 10 mg/kg, po measured upto 24 hrs by LC-MS/MS analysis; type: ADME, organism-based; details: in vivo
[12] = test system: Calu-3; assay: Cytotoxicity against human Calu-3 cells assessed as cell viability measured after 3 days by CellTiter-Lumi Steady Plus Luminescent Cell Viability Assay Kit; type: functional; details: Calu-3, 72 h, time 3 day
[13] = Stability of the compound in pH 7.4 PBS buffer assessed as compound remaining measured after 24 hrs by LC-MS/MS analysis; type: physicochemical; details: read-out: Stability
[14] = test system: Influenza A virus; assay: Antiviral activity against Influenza virus H3N2 (A/Hong Kong/8/68) infected in human Calu-3 cells assessed as viral RNA measured after 3 days by one-time real time PCR assay; type: functional, organism-based; details: Calu-3, 72 h
[15] = test system: Influenza A virus; assay: Synergistic antiviral activity against Influenza virus H1N1 A/Puerto Rico/8/34 (A/PR/8/34) infected in human Calu-3 cells assessed as combination index of 50% inhibition at 0.24 nM in presence of 170 nM oseltamivir acid; type: functional
[16] = test system: Influenza A virus; assay: Synergistic antiviral activity against Influenza virus H1N1 A/Puerto Rico/8/34 (A/PR/8/34) infected in human Calu-3 cells assessed as combination index of 50% inhibition at 15.6 nM in presence of 31 nM oseltamivir acid; type: functional
[17] = Oral bioavailability in ICR (CD-1) mouse at 10 mg/kg measured upto 24 hrs by LC-MS/MS analysis; type: ADME, organism-based; details: in vivo
[18] = test system: Influenza A virus; assay: Synergistic antiviral activity against Influenza virus H1N1 A/Puerto Rico/8/34 (A/PR/8/34) infected in human Calu-3 cells assessed as combination index of 50% inhibition at 28.3 nM in presence of 3.91 nM oseltamivir acid; type: functional
[19] = test system: Influenza A virus; assay: Antiviral activity against Influenza virus H1N1 A/Puerto Rico/8/34 (A/PR/8/34) 2.5TCID50 infected in human Calu-3 cells assessed as reduction in virus-induced cytopathic effect by measuring degeneration at 0.0156 to 37 uM measured after 3 days by immunofluorescence assay; type: functional, organism-based; details: dose 0.0156-37 µM, time 3.0 day
[20] = Cmax in ICR (CD-1) mouse at 10 mg/kg, po measured upto 24 hrs by LC-MS/MS analysis; type: ADME, organism-based; details: in vivo
[21] = test system: Influenza A virus; assay: Synergistic antiviral activity against Influenza virus H1N1 A/Puerto Rico/8/34 (A/PR/8/34) infected in human Calu-3 cells assessed as combination index of 50% inhibition at 3.91 nM in presence of 83.1 nM oseltamivir acid; type: functional
[22] = test system: Influenza A virus; assay: Synergistic antiviral activity against Influenza virus H1N1 A/Puerto Rico/8/34 (A/PR/8/34) infected in human Calu-3 cells assessed as combination index of 50% inhibition at 2.61 nM in presence of 62.5 nM oseltamivir acid; type: functional
[23] = test system: Influenza A virus; assay: Antiviral activity against Influenza virus HIN1 (A/California/07/2009 pdm09) infected in human Calu-3 cells assessed as viral RNA measured after 3 days by one-time real time PCR assay; type: functional, organism-based; details: Calu-3, 72 h
[24] = test system: Influenza A virus; assay: Synergistic antiviral activity against Influenza virus H1N1 A/Puerto Rico/8/34 (A/PR/8/34) infected in human Calu-3 cells assessed as combination index of 50% inhibition at 0.98 nM in presence of 172 nM oseltamivir acid; type: functional
[25] = AUC (0 to infinity) in ICR (CD-1) mouse at 10 mg/kg, po measured upto 24 hrs by LC-MS/MS analysis; type: ADME, organism-based; details: in vivo
[26] = Clearance in ICR (CD-1) mouse at 2 mg/kg, iv measured upto 24 hrs by LC-MS/MS analysis; type: ADME, organism-based; details: in vivo
[27] = test system: Influenza A virus; assay: Antiviral activity against Influenza virus H1N1 A/Puerto Rico/8/34 (A/PR/8/34) infected in human Calu-3 cells assessed as viral RNA measured after 3 days by one-time real time PCR assay; type: functional, organism-based; details: Calu-3, 72 h
[28] = Tmax in ICR (CD-1) mouse at 10 mg/kg, po measured upto 24 hrs by LC-MS/MS analysis; type: ADME, organism-based; details: in vivo
[29] = test system: Influenza A virus; assay: Antiviral activity against HIV pseudotyped H5N1 HA infected in human 293T cells assessed as inhibition of viral entry into cells by measuring intensity of chemiluminescence measured after 3 days by Bright-Glo luciferase assay; type: functional, organism-based; details: HEK293T, time 3.0 day

With `C=C1Cc2cc(C(F)(F)F)ccc2C(=O)NCC2(CCC2)/C(=N/OC)CCCOC1=O` the selectivity ratio [1] was greater than 4350, the Activity [2] was “inactive” and the CI50 [3] was 0.84. It also gave a half-life [4] of 24.6 min, a remaining at 24 h [5] greater than 90% and an EC50 [6] greater than 50000 nM. The AUC(0-inf) [7] was 222 ng·h/mL, the Vd [8] was 3.12 L/kg and the Activity [9] was “Active”. For the same compound, the Activity [10] was “Active”, the half-life [11] was 39 min and the CC50 [12] was greater than 100000 nM. It also gave a remaining at 24 h [13] greater than 90%, an EC50 [14] greater than 50000 nM and a CI50 [15] of 0.32. The CI50 [16] was 0.57, the bioavailability [17] was 0.12% and the CI50 [18] was 0.93. The Activity [19] was “Active”, the Cmax [20] was 2.42 ng/mL and the CI50 [21] was 0.28. For the same compound, the CI50 [22] was 0.2, the EC50 [23] was 62 nM and the CI50 [24] was 0.35. For the same compound, the AUC(0-inf) [25] was 2.65 ng·h/mL, the clearance [26] was 151 mL/min/kg and the EC50 [27] was 23 nM. The EC90 ([27]; time 3 day) was 142 nM, the Tmax [28] was 15 min and the Activity [29] was “inactive”.
